Measured values taken from ChEMBL document CHEMBL3507680, “University of Dundee, Gates Library screen for HepG2 cell viability”.
Where “and” joins values, the source holds several entries; their conditions need not be identical. Identical values can stand only once.

Columns and labels:
[1] = Human HepG2 cell viability assay in 384 well format; type: toxicity, cell-based; parameters: dose 125 nL, time 70.5 hour; cytotoxicity at 70.5 h: concentration not given beside the values; details: HepG2 cells, read-out: Inhibition
[2] = Human HepG2 cell viability dose-response assay; type: toxicity, cell-based

SMILES	cytotoxicity at 70.5 h [1]	BOTTOM [2]	HILLSLOPE [2]	TOP [2]	pXC50 [2]
Cc1cccc(C)c1Nc1noc2c1CN(C(=O)c1cn(C)cn1)CC2	75.1%	-7.032 and -2.364	1.548 and 1.741	100	4.986 and 4.918
CC(C)c1cc(CN2CCNCC2)no1	94.6%	-2.548 and -2.696	–	101.6 and 102.2	4.866 and 4.991
Cc1nn(C)cc1C(=O)Nc1cccc(CN2CCC(CO)CC2)c1	60.6%	0	0	0	< 4.53
O=C(NCCCN1CCCCC1)c1ccc(-n2ccc3ccccc32)s1	64.9%	-3.023 and -2.579	5.041 and 5.956	103.2 and 102.3	5.01 and 4.975
Cc1cc(NC2CCc3nc(C(C)C)nn3C2)n2ncnc2n1 (stereo not given)	84.4%	0	0	0	< 4.53
COc1ccccc1NC(=O)c1ccc(C)n1C	96%	-9.133 and -11.57	2.979 and 2.832	100	5.661 and 5.693
CCc1[nH]c2c(CNc3cc(C)nc(NC)n3)cc(C)cc2c1C	98.3%	-3.677 and -3.483	3.229 and 3.201	103.4 and 104.1	5.247 and 5.258
Cl.Cl.Clc1cccc(C[C@@H]2NCCC[C@@H]2Nc2cccc(Cl)c2)c1	105%	–	19.49 and 7.416	101.7 and 101.8	5.461 and 5.474
Cc1cnc(CCN(C)C(=O)c2cccc(N(C)C)c2)s1	60.6%	0	0	0	< 4.53
COc1ccc(CNC(Cc2ccsc2)c2ccc(C)cn2)cc1OC.Cl (stereo not given)	91.5%	-6.281 and -3.457	2.493 and 1.7	86.66 and 100	5.471 and 5.341
CC(C)N1CCN(c2ccc3ccc(C(=O)NC4CCCC4)cn23)CC1.O=C(O)C(F)(F)F	101%	0	0	0	< 4.53
Cc1nc(CC(C)C)cc(C(=O)N2C[C@@H](N(C)C)[C@H](C(C)C)C2)n1	67%	0	0	0	< 4.53
CC(C)Nc1cc(-c2c[nH]nc2C2CCN(C(=O)C3CCC3)C2)ccn1 (stereo not given)	95.8%	5.771 and 12.22	3.68 and 3.705	97.15 and 97.9	6.593 and 6.589
Cc1noc(C)c1C(=O)N1CCCC1c1c(C)nn(C)c1Cl (stereo not given)	103%	0	0	0	< 4.53
Cn1nc(C(=O)NCc2ccccn2)c2c1CCS(=O)(=O)C2	88.4%	0	0	0	< 4.53
O=C(CCNCC(F)(F)F)N1CCC(Nc2cccnn2)CC1	66.1%	0	0	0	< 4.53
Cc1nc(Nc2ncc(C)s2)cc(C2CCCN2)n1.Cl (stereo not given)	95.5%	26.01 and 24.5	4.462 and 3.743	100.2 and 98.81	5.319 and 5.315
OC1COCCN(Cc2cc(-c3ccccc3OC(F)(F)F)no2)C1 (stereo not given)	60%	0	0	0	< 4.53
NCC1CCN(C2CCN(c3ccc(-c4ccco4)cc3)CC2)C1 (stereo not given)	102%	-8.648 and -4.813	7.574 and 7.233	102.1 and 102.4	5.593 and 5.596
O=C(Nc1cc(C(F)(F)F)c[nH]c1=O)c1ccco1	64%	-14.03 and -12.55	1.1 and 1.086	100	4.903 and 4.796
CCc1nc(CN(C)C2CCN(Cc3cnc(C)cn3)C2)no1 (stereo not given)	66%	0	0	0	< 4.53

SMILES	cytotoxicity at 70.5 h [1]	BOTTOM [2]	HILLSLOPE [2]	TOP [2]	pXC50 [2]
CC1CCCN1Cc1ccccc1-c1nc(C(C)(C)C)cc(=O)[nH]1 (stereo not given)	31.4%	–	–	–	–
COc1cc(N2CCC3(CCCN(C(=O)c4cnccn4)C3)C2)ncn1 (stereo not given)	17%	–	–	–	–
CC(C)N1CCC(N2CCCC(C(=O)NCC3(C)COC3)C2)CC1 (stereo not given)	-3.7%	–	–	–	–
CC1Oc2ccc(S(=O)(=O)NCCCn3ccnc3)cc2NC1=O (stereo not given)	-3.81%	–	–	–	–
CCN(Cc1noc(C)n1)C(=O)CCn1c(C)cc2ccccc21	-6.29%	–	–	–	–
Cn1cnnc1SCC(=O)N1C[C@H]2CC[C@@H]1CN(Cc1cccnc1)C2	-3.64%	–	–	–	–
CS(=O)(=O)N1CCCC1C(=O)Nc1cnc2n1CCCC2 (stereo not given)	-20.4%	–	–	–	–
O=C(COc1ccc2c(c1)CCC2)N1CCCC1c1ccc[nH]1 (stereo not given)	-23.1%	–	–	–	–
COC(=O)c1ccc(N2CCN(C(=O)C3CC3)C(C)C2)cc1 (stereo not given)	-5.06%	–	–	–	–
Cc1cc(C(=O)N2CCn3nc(C(=O)NC4CC4)cc3C2)nc(C)n1	-2.56%	–	–	–	–
COc1c(CNCCNC(=O)c2cccs2)c(C)nn1C	-10.5%	–	–	–	–
Cc1nc(C)n(CC2CN(CCC(=O)N3CCCCC3)CCO2)n1 (stereo not given)	-6.29%	–	–	–	–
c1csc(N2CCN(c3ncnc4sccc34)CC2)n1	-7.71%	–	–	–	–
CC1CN(C(=O)c2cc[nH]c(=O)c2)c2ccccc21 (stereo not given)	-12.3%	–	–	–	–
CN(CC1(CO)CCCC1)[C@@H]1c2ccccc2C2(CCNCC2)[C@H]1O	-3.86%	–	–	–	–
CCn1cncc1C1CC(=O)Nc2c1c(C)nn2-c1ccc(C)cc1 (stereo not given)	1.51%	–	–	–	–
CN(C)c1nc2c(c(N3CCc4ccccc4C3)n1)CCNC2	0.802%	–	–	–	–
Cc1cc(C)n(Cc2ccc(C(=O)NCCN3CCOCC3)cc2)n1	1.27%	–	–	–	–
Cc1csc(C(C)(C)NCCOc2ccc(CC#N)cc2)n1	-0.219%	–	–	–	–
Cc1nc(C2CCN(C(=O)c3cnc(N(C)C)nc3)CC2)c2sccn12	1.86%	–	–	–	–
OCCOCc1n[nH]c2c1CN(Cc1ccccn1)C2	-7.78%	–	–	–	–

SMILES	cytotoxicity at 70.5 h [1]	BOTTOM [2]	HILLSLOPE [2]	TOP [2]	pXC50 [2]
c1cnc(N2C[C@H]3CN(CC4CCOC4)C[C@H]3C2)nc1 (stereo not given in full)	-4.56%	–	–	–	–
CC(=O)NC[C@H]1OC[C@@H](NC2CCC(F)(F)CC2)[C@@H]1O	-4.95%	–	–	–	–
Cc1cnn(CC2CN(c3ccc(C#N)cn3)CCO2)c1 (stereo not given)	23.6%	–	–	–	–
O=S(=O)(NCC1CCN(c2ccccn2)CC1)c1ccccc1F	33.3%	–	–	–	–
CS(=O)(=O)N[C@@H]1CN(C(=O)c2ccccn2)[C@@H]2CCCO[C@@H]21	-5.15%	–	–	–	–
CC(C)=CCN1CCN(Cc2cc(C)c(O)c(C)c2)CC1CCO (stereo not given)	9.39%	–	–	–	–
CN(C)CCOCC1CN(Cc2ccc(F)cc2)Cc2nnn(C)c21 (stereo not given)	2.45%	–	–	–	–
CC(NCCCC#N)c1ccc(S(C)(=O)=O)c(F)c1 (stereo not given)	9.59%	–	–	–	–
COc1cccc(-n2nnc(C(=O)N3CCNC(=O)C3)c2C)c1	28%	–	–	–	–
Cn1ccc2c(-c3nccc(N)n3)ccnc21	5.54%	–	–	–	–
O=C(CSCc1ccccn1)N(Cc1ccsc1)C1CC1	-2.85%	–	–	–	–
Cc1noc(C)c1CN1CCn2nc(CCC(=O)N3CCCC3)cc2C1	-2.3%	–	–	–	–
CCN(CC)C(=O)CCNC(=O)c1c[nH]c2ccc(OC)cc12	1.48%	–	–	–	–
CCOc1ncccc1NC(=O)N1CCCC(CNC(N)=O)C1 (stereo not given)	-8.62%	–	–	–	–
COc1cccc(CC(=O)N2CC[C@@H]3CN(C)S(=O)(=O)[C@@H]3CC2)c1	-3.48%	–	–	–	–
CS(=O)(=O)N1CCCC(c2cncc(Nc3ccccn3)n2)C1 (stereo not given)	-7.64%	–	–	–	–
CC(C)n1ccnc1C1CCCN(c2cncc(N(C)C)n2)C1 (stereo not given)	2.84%	–	–	–	–
CCn1cnnc1CNC(=O)NC(c1ccccc1)C1CCCC1 (stereo not given)	-7.51%	–	–	–	–
OC(CN1CCN(Cc2cc(F)cc(F)c2)CC1)C1CC1 (stereo not given)	28.5%	–	–	–	–
N#CCC(=O)NCc1nnc2n1CCN(Cc1ccco1)C2	-13%	–	–	–	–
CCc1nc(C2CCCN2CCn2cncn2)no1 (stereo not given)	-5.31%	–	–	–	–

SMILES	cytotoxicity at 70.5 h [1]	BOTTOM [2]	HILLSLOPE [2]	TOP [2]	pXC50 [2]
Cc1occc1C(=O)N1CCCC2(CCN(c3ccccc3)C2=O)C1 (stereo not given)	12.9%	–	–	–	–
O=C(C1CCOCC1)N1CCc2ncc(CN3CCCC3)n2CC1	-13.2%	–	–	–	–
NC(=O)C1CCN(CC(=O)NCCn2cc(Cl)cn2)CC1	13.2%	–	–	–	–
O=C(Nc1ccccn1)C1(n2cnnn2)CCCCC1	-21.1%	–	–	–	–
Cc1c(-c2cc(C(F)(F)F)nc(N3CCC(N)CC3)n2)cnn1C	32.2%	–	–	–	–
CC(C)[C@@H]1CN(C(=O)C2(c3ccccc3)CCN(C)CC2)C[C@H]1N(C)C	9.05%	–	–	–	–
Cc1cc2n(n1)CCN(c1nc(N)nc3c1CCNCC3)C2	-13.6%	–	–	–	–
COc1ccc(NC(=O)N2CCC(c3noc(C)n3)CC2)cc1C	1.97%	–	–	–	–
O=C1N(Cc2cccc(Cl)c2)CCC12CCCNC2 (stereo not given)	-12.1%	–	–	–	–
Cc1cccc(C(=O)Nc2ccc(OC3CCN(C)CC3)cc2)c1	19.2%	–	–	–	–
COCCN1C[C@@H](C)[C@@]2(COCCN(C(=O)c3ccncc3)C2)C1	-3.32%	–	–	–	–
Cc1cnc(NCCCN2CCCCC2CO)nc1 (stereo not given)	-1.85%	–	–	–	–
O=C(NC1CCCCC1)C1CCCN(C(=O)Nc2ccccn2)C1 (stereo not given)	-15.3%	–	–	–	–
Cc1cc(NCCNS(C)(=O)=O)nc2cc3c(cc12)CCC3	-5.01%	–	–	–	–
CNC(=O)NC(=O)CCN1CCN(c2nccs2)CC1	-0.375%	–	–	–	–
O=C(CN1CCOC(Cn2cccn2)C1)NCc1ccccn1 (stereo not given)	-9.46%	–	–	–	–
CC(C)c1nncn1CCNC(=O)c1ccc(Cl)cc1O	0.918%	–	–	–	–
COc1ccc(CN2CCCC2)cc1Oc1cccc(C#N)n1	-2.11%	–	–	–	–
Cc1cnn(CC2CCCN2C(=O)c2c(C)noc2C(C)C)c1 (stereo not given)	11.7%	–	–	–	–
CN1CCN(Cc2cccc(NCc3ncc[nH]3)c2)CC1	8%	–	–	–	–
